Test results taken from patent publication US10758484B2, “CED of SN-38-loaded micelles against brain tumor” (Nippon Kayaku Co., Ltd., priority 2014, dated 2020).

Assays:
[1] = Distribution in normal rat brain after CED, fluorescence microscopy; conditions: for local brain tissue damage: free SN-38 infused by CED into normal rat brain
Method: Serial coronal tissue sections (20 μm thickness) were prepared using Tissue-Tek Cryo3 (Sakura Finetek USA, Inc., Torrance, Calif.), and frozen sections were examined under a fluorescence microscope, BIOREVO BZ9000 (Keyence, Osaka, Japan), at an excitation wavelength of 377 nm and an emission wavelength 447 nm to evaluate the distribution of NK012 within the tissues. Image data were recorded using BZ-II Analyzer 1.10 software (Keyence).
Animals were euthanized immediately after infusion and serial sections were obtained using a cryostat (20 μm thickness; 1 mm interval).

[2] = system: 9L orthotopic brain tumor model; assay: Survival study, 9L orthotopic brain tumor model; type: in vivo, rat; conditions: rats with 9L tumor, 0.04 mg by single CED on day 5 after implantation
Method: Fischer 344 rats were used for the 9L model, and F344/NJc1-rnu/rnu (nude) rats were used for the U87MG model. […] Briefly, 9L and U87MG cells were harvested using trypsin-EDTA following washing once with complete medium, and resuspended in cold phosphate-buffered saline (PBS) for implantation. A cell suspension containing 1×10^4 (9L) or 2×10^5 (U87MG) cells per 10 μl of PBS was used for implantation into the striatum region of rat brains. Under deep isoflurane anesthesia, rats were placed in a small animal stereotactic frame (David Kopf Instruments, Tujunga, Calif.). […] Five microliters of cell suspension were injected at a depth of 4.5 mm from the brain surface. After a wait of 2 minutes, another 5 μl were injected at a depth of 4 mm. After a final wait of 2 minutes, the needle was removed, and the wound was closed with sutures.
Fourteen rats with implanted U87MG tumor cells were randomly divided into two groups on day 5 after tumor cell implantation and treated as follows: (1) CED of PBS (n=7) as a control, and (2) CED of NK012 (n=7). […] All other rats were monitored daily for survival. Survival was compared between the treatment groups using a log-rank test. Estimated survival was expressed as a Kaplan-Meier curve.

## 7-ethyl-10-hydroxy-camptothecine [SN-38]
[1]; CED into normal rat striatum, fluorescence of SN-38
  distribution after CED (description): quite restricted
[1]
  local brain tissue damage: severe local tissue damage
[1]; listed as free SN-38
  local brain tissue damage: increased local brain damage
[2]
  median survival: 28 days
  survival range after tumor cell implantation: 24 to 30 days
